Test results as given in patent US7456199B2, “Biphenyl compounds useful as muscarinic receptor antagonists” (Theravance, Inc., priority 2004, dated 2008).

Tested on: MCh depressor responses
Assay: Methacholine-induced depressor responses in conscious guinea pigs
Assay type: in vivo, guinea pig
Settings: inhalation
Source text: Healthy, adult, male Sprague-Dawley guinea pigs (Harlan, Indianapolis, Ind.), weighing between 200 and 300 g were used in these studies. Under isoflurane anesthesia (to effect), animals were instrumented with common carotid artery and jugular vein catheters (PE-50 tubing). The catheters were exteriorized utilizing a subcutaneous tunnel to the subscapular area. All surgical incisions were sutured with 4-0 Ethicon Silk and the catheters locked with heparin (1000 units/mL). Each animal was administered saline (3 mL, SC) at the end of surgery as well as buprenorphine (0.05 mg/kg, IM). Animals were allowed to recover on a heating pad before being returned to their holding rooms.
Approximately 18 to 20 hours following surgery, the animals were weighed and the carotid artery catheter on each animal was connected to a transducer for recording arterial pressure. Arterial pressure and heart rate was recorded using a Biopac MP-100 Acquisition System. Animals were allowed to acclimate and stabilize for a period of 20 minutes.
Each animal was challenged with MCh (0.3 mg/kg, IV) administered through the jugular venous line and the cardiovascular response was monitored for 10 minutes. […] At 1.5 and 24 h post-dosing, the animals were re-challenged with MCh (0.3 mg/kg, IV) and the hemodynamic response was determined. […]

For `O=C(CCN1CCC(OC(=O)Nc2ccccc2-c2ccccc2)CC1)Nc1ccc(CNCc2ccc(O)cc2)cc1` [Example 1, Biphenyl-2-ylcarbamic Acid 1-(2-{4-[(4-Hydroxybenzylamino)methyl]phenylcarbamoyl}ethyl)piperidin-4-yl Ester], the “apparent lung-selectivity index (ratio of anti-depressor ID50 to bronchoprotective ID50)” value was “greater than 5”.
